The values below come from the NIST ThermoML archive (doi:10.1016/j.jct.2016.07.021).

The data set in a line: activity coefficient (dimensionless); of the first substance listed, at infinite dilution; xn = mol fraction of the nth substance listed. Conditions: 101.33 kPa, Liquid, Chromatography, x1 = 0.

Each structure is given as a SMILES string. Numbers after ± are expanded uncertainties.

Consider `ClCCl` [dichloromethane] + CCCCCCn1cc[n+](C)c1C.O=S(=O)([N-]S(=O)(=O)C(F)(F)F)C(F)(F)F, for which the activity coefficient by setting is: (313.15 K) 0.74 ± 0.08; (323.15 K) 0.73 ± 0.08; (333.15 K) 0.72 ± 0.08; (343.15 K) 0.71 ± 0.07; (353.15 K) 0.7 ± 0.07.
For the compound `CC1CCCCC1` [methylcyclohexane] + CCCCCCn1cc[n+](C)c1C.O=S(=O)([N-]S(=O)(=O)C(F)(F)F)C(F)(F)F, the activity coefficient by setting is: (313.15 K) 6.48 ± 0.68; (323.15 K) 6.26 ± 0.66; (333.15 K) 6.06 ± 0.64; (343.15 K) 5.81 ± 0.61; (353.15 K) 5.62 ± 0.59.
Take `Cc1cccc(C)c1` [1,3-dimethylbenzene] + CCCCCCn1cc[n+](C)c1C.O=S(=O)([N-]S(=O)(=O)C(F)(F)F)C(F)(F)F: the activity coefficient is, setting by setting: (313.15 K) 1.34 ± 0.14; (323.15 K) 1.38 ± 0.14; (333.15 K) 1.41 ± 0.15; (343.15 K) 1.44 ± 0.15; (353.15 K) 1.47 ± 0.15.
Turning to `CCCCCCCCCC` [decane] + CCCCCCn1cc[n+](C)c1C.O=S(=O)([N-]S(=O)(=O)C(F)(F)F)C(F)(F)F, the activity coefficient reads like this: (313.15 K) 26.8 ± 2.8; (323.15 K) 25 ± 2.6; (333.15 K) 23.3 ± 2.5; (343.15 K) 21.6 ± 2.3; (353.15 K) 20.1 ± 2.1.
For the compound `CCc1ccccc1` [ethylbenzene] + CCCCCCn1cc[n+](C)c1C.O=S(=O)([N-]S(=O)(=O)C(F)(F)F)C(F)(F)F, the activity coefficient by setting is: (313.15 K) 1.34 ± 0.14; (323.15 K) 1.36 ± 0.14; (333.15 K) 1.38 ± 0.14; (343.15 K) 1.4 ± 0.14; (353.15 K) 1.42 ± 0.15.
In the case of `CCCCCC` [hexane] + CCCCCCn1cc[n+](C)c1C.O=S(=O)([N-]S(=O)(=O)C(F)(F)F)C(F)(F)F, the activity coefficient by setting is: (313.15 K) 7.6 ± 0.8; (323.15 K) 7.41 ± 0.78; (333.15 K) 7.16 ± 0.75; (343.15 K) 6.96 ± 0.73; (353.15 K) 6.78 ± 0.71.
Take `CCCCC` [pentane] + CCCCCCn1cc[n+](C)c1C.O=S(=O)([N-]S(=O)(=O)C(F)(F)F)C(F)(F)F: the activity coefficient was 5.64 ± 0.59 (313.15 K); 5.55 ± 0.58 (323.15 K); 5.45 ± 0.57 (333.15 K); 5.33 ± 0.56 (343.15 K); 5.21 ± 0.55 (353.15 K).
Consider `CCCCCCCCC` [nonane] + CCCCCCn1cc[n+](C)c1C.O=S(=O)([N-]S(=O)(=O)C(F)(F)F)C(F)(F)F, for which the activity coefficient is, setting by setting: (313.15 K) 21.5 ± 2.3; (323.15 K) 19.8 ± 2.1; (333.15 K) 18.1 ± 1.9; (343.15 K) 16.6 ± 1.7; (353.15 K) 15.1 ± 1.6.
Taken in the same sequence, the figures for `Cc1ccc(C)cc1` [1,4-dimethylbenzene] + CCCCCCn1cc[n+](C)c1C.O=S(=O)([N-]S(=O)(=O)C(F)(F)F)C(F)(F)F were 1.39 ± 0.14, 1.42 ± 0.15, 1.46 ± 0.15, 1.5 ± 0.16 and 1.55 ± 0.16.
`CCOC(C)=O` [ethyl acetate] + CCCCCCn1cc[n+](C)c1C.O=S(=O)([N-]S(=O)(=O)C(F)(F)F)C(F)(F)F: the activity coefficient is, setting by setting: (313.15 K) 0.83 ± 0.09; (323.15 K) 0.86 ± 0.09; (333.15 K) 0.88 ± 0.09; (343.15 K) 0.91 ± 0.09; (353.15 K) 0.93 ± 0.09.
For the compound `Cc1ccccc1` [toluene] + CCCCCCn1cc[n+](C)c1C.O=S(=O)([N-]S(=O)(=O)C(F)(F)F)C(F)(F)F, the activity coefficient was determined as 0.96 ± 0.1 (313.15 K); 0.99 ± 0.1 (323.15 K); 1.01 ± 0.1 (333.15 K); 1.03 ± 0.1 (343.15 K); 1.05 ± 0.11 (353.15 K).
In the case of `CC#N` [acetonitrile] + CCCCCCn1cc[n+](C)c1C.O=S(=O)([N-]S(=O)(=O)C(F)(F)F)C(F)(F)F, the activity coefficient by setting is: (313.15 K) 0.45 ± 0.05; (323.15 K) 0.46 ± 0.05; (333.15 K) 0.47 ± 0.05; (343.15 K) 0.48 ± 0.05; (353.15 K) 0.48 ± 0.05.
For `CCCCCCCC` [octane] + CCCCCCn1cc[n+](C)c1C.O=S(=O)([N-]S(=O)(=O)C(F)(F)F)C(F)(F)F, the activity coefficient is 12.8 ± 1.4 (313.15 K); 11.7 ± 1.2 (323.15 K); 10.6 ± 1.1 (333.15 K); 9.82 ± 1 (343.15 K); 9.16 ± 0.96 (353.15 K).
Regarding `ClC(Cl)Cl` [trichloromethane] + CCCCCCn1cc[n+](C)c1C.O=S(=O)([N-]S(=O)(=O)C(F)(F)F)C(F)(F)F, the activity coefficient (313.15 K) came out at 0.77 ± 0.08; the activity coefficient (323.15 K) was found to be 0.78 ± 0.08; the activity coefficient (333.15 K) came out at 0.79 ± 0.08; the activity coefficient (343.15 K) is 0.81 ± 0.08; the activity coefficient (353.15 K) was 0.82 ± 0.08.
Consider `CCCCCCC` [heptane] + CCCCCCn1cc[n+](C)c1C.O=S(=O)([N-]S(=O)(=O)C(F)(F)F)C(F)(F)F, for which the activity coefficient reads like this: (313.15 K) 10.2 ± 1.1; (323.15 K) 9.79 ± 1; (333.15 K) 9.47 ± 1; (343.15 K) 9.2 ± 0.97; (353.15 K) 8.83 ± 0.93.
Turning to `C1CCCCC1` [cyclohexane] + CCCCCCn1cc[n+](C)c1C.O=S(=O)([N-]S(=O)(=O)C(F)(F)F)C(F)(F)F, the activity coefficient was determined as 5.33 ± 0.56 (313.15 K); 5.14 ± 0.54 (323.15 K); 4.99 ± 0.52 (333.15 K); 4.88 ± 0.51 (343.15 K); 4.74 ± 0.5 (353.15 K).
On to `c1ccccc1` [benzene] + CCCCCCn1cc[n+](C)c1C.O=S(=O)([N-]S(=O)(=O)C(F)(F)F)C(F)(F)F, for which the activity coefficient by setting is: (313.15 K) 0.72 ± 0.08; (323.15 K) 0.72 ± 0.08; (333.15 K) 0.74 ± 0.08; (343.15 K) 0.75 ± 0.08; (353.15 K) 0.76 ± 0.08.
As to `CC(C)=O` [acetone] + CCCCCCn1cc[n+](C)c1C.O=S(=O)([N-]S(=O)(=O)C(F)(F)F)C(F)(F)F, the activity coefficient is 0.4 ± 0.05 (313.15 K); 0.42 ± 0.05 (323.15 K); 0.43 ± 0.05 (333.15 K); 0.45 ± 0.05 (343.15 K); 0.46 ± 0.05 (353.15 K).
Taken in the same sequence, the figures for `C1=CCCCC1` [cyclohexene] + CCCCCCn1cc[n+](C)c1C.O=S(=O)([N-]S(=O)(=O)C(F)(F)F)C(F)(F)F were 3.36 ± 0.35, 3.29 ± 0.35, 3.19 ± 0.34, 3.06 ± 0.32 and 2.93 ± 0.31.
On to `C1CCOC1` [tetrahydrofuran] + CCCCCCn1cc[n+](C)c1C.O=S(=O)([N-]S(=O)(=O)C(F)(F)F)C(F)(F)F, for which the activity coefficient runs as follows: (313.15 K) 0.5 ± 0.06; (323.15 K) 0.51 ± 0.06; (333.15 K) 0.53 ± 0.06; (343.15 K) 0.55 ± 0.06; (353.15 K) 0.58 ± 0.06.
`Cc1ccccc1C` [1,2-dimethylbenzene] + CCCCCCn1cc[n+](C)c1C.O=S(=O)([N-]S(=O)(=O)C(F)(F)F)C(F)(F)F: the activity coefficient by setting is: (313.15 K) 1.17 ± 0.12; (323.15 K) 1.19 ± 0.12; (333.15 K) 1.21 ± 0.12; (343.15 K) 1.22 ± 0.13; (353.15 K) 1.24 ± 0.13.
For the compound `ClC(Cl)(Cl)Cl` [tetrachloromethane] + CCCCCCn1cc[n+](C)c1C.O=S(=O)([N-]S(=O)(=O)C(F)(F)F)C(F)(F)F, the activity coefficient reads like this: (313.15 K) 2.31 ± 0.24; (323.15 K) 2.26 ± 0.24; (333.15 K) 2.19 ± 0.23; (343.15 K) 2.15 ± 0.23; (353.15 K) 2.09 ± 0.22.
